Read-outs that look alike come from different tables or passages of the source.
What was measured:
SNB-75 = assay: NCI five-dose assay; format: cell-based, human; settings: SNB-75, CNS cancer
UO-31 = assay: NCI five-dose assay; format: cell-based, human; settings: UO-31, Renal cancer
Leukemia subpanel = assay: NCI five-dose assay, subpanel mean; format: cell-based, human
COLO205 = assay: NCI five-dose assay; format: cell-based, human; settings: COLO205, Colon cancer
SK-MEL-5 = assay: NCI five-dose assay; format: cell-based, human; settings: SK-MEL-5, Melanoma
[1] = tested on: panel of 60 human tumor cell lines; assay: NCI five-dose assay, full panel; format: cell-based
SF-295 = assay: NCI five-dose assay; format: cell-based, human; settings: SF-295, CNS cancer
HCT-116 = assay: NCI five-dose assay; format: cell-based, human; settings: HCT-116, Colon cancer
SK-OV-3 = assay: NCI five-dose assay; format: cell-based, human; settings: SK-OV-3, Ovarian cancer
SN12C = assay: NCI five-dose assay; format: cell-based, human; settings: Renal cancer
A549/ATCC = assay: NCI five-dose assay; format: cell-based, human; settings: Non-small cell lung cancer
NCI/ADR-RES = assay: NCI five-dose assay; format: cell-based, human; settings: Ovarian cancer
Melanoma subpanel = assay: NCI five-dose assay, subpanel mean; format: cell-based, human
RPMI-8226 = assay: NCI five-dose assay; format: cell-based, human; settings: RPMI-8226, Leukemia
786-0 = assay: NCI five-dose assay; format: cell-based, human; settings: 786-0, Renal cancer
NCI-H23 = assay: NCI five-dose assay; format: cell-based, human; settings: NCI-H23, Non-small cell lung cancer
SK-MEL-28 = assay: NCI five-dose assay; format: cell-based, human; settings: SK-MEL-28, Melanoma
U251 = assay: NCI five-dose assay; format: cell-based, human; settings: U251, CNS cancer
SR = assay: NCI five-dose assay; format: cell-based, human; settings: Leukemia
NCI-H322M = assay: NCI five-dose assay; format: cell-based, human; settings: Non-small cell lung cancer
MDA-MB-435 = assay: NCI five-dose assay; format: cell-based, human; settings: MDA-MB-435, Melanoma
MALME-3M = assay: NCI five-dose assay; format: cell-based, human; settings: Melanoma
RXF393 = assay: NCI five-dose assay; format: cell-based, human; settings: RXF393, Renal cancer
M14 = assay: NCI five-dose assay; format: cell-based, human; settings: M14, Melanoma
NCI-H522 = assay: NCI five-dose assay; format: cell-based, human; settings: NCI-H522, Non-small cell lung cancer
HCT-15 = assay: NCI five-dose assay; format: cell-based, human; settings: HCT-15, Colon cancer
[2] = Homo sapiens, 48 h, read-out: LC50 (the source's name)
[3] = Homo sapiens, read-out: GI50 Conc. per Cell Lines

With `Cc1ccc(C(=O)CSc2nnc(-c3c[nH]c4ccccc34)n2-c2ccccc2)cc1` [Compound 6h, 2-((5-(1H-Indol-3-yl)-4-phenyl-4H-1,2,4-triazol-3-yl)thio)-1-(p-tolyl)ethenone] the CC50 (SNB-75; [2]) was 68 µM, the GI50 (SNB-75; [3]) was 12.9 µM and the “TGI Conc. per Cell Lines” value (SNB-75) was 29.60 µM. The CC50 (UO-31; [2]) was 69.5 µM, the GI50 (UO-31; [3]) was 14.2 µM and the “TGI Conc. per Cell Lines” value (UO-31) was 31.40 µM. For the same compound, the GI50 (Leukemia subpanel; Homo sapiens, average sensitivity of all cell lines of the Leukemia subpanel, read-out: GI50 Subpanel MID b) was 33.5 µM, the “GI50 Selectivity Ratio (MID a/MID b)” value (Leukemia subpanel; Leukemia subpanel) was 0.58 and the “TGI Conc. per Cell Lines” value (COLO205) was greater than 100 µM. It also gave a CC50 (COLO205; Homo sapiens, COLO 205, 48 h, read-out: LC50 (the source's name)) greater than 100 µM, a GI50 (COLO205; Homo sapiens, COLO 205, read-out: GI50 Conc. per Cell Lines) of 34.4 µM and a CC50 (SK-MEL-5; [2]) of 92.4 µM. The GI50 (SK-MEL-5; [3]) was 16.5 µM, the “TGI Conc. per Cell Lines” value (SK-MEL-5) was 39.10 µM and the GI50 ([1]; average sensitivity of all cell lines, read-out: GI50 MID a) was 19.3 µM. It also gave a GI50 ([1]; most of the tested cell lines across nine subpanels, read-out: GI50 values, range across nine subpanels) of 8.42 to 33.5 µM, a CC50 (SF-295; [2]) of 53.3 µM and a GI50 (SF-295; [3]) of 12.6 µM. For the same compound, the “TGI Conc. per Cell Lines” value (SF-295) was 25.90 µM, the “TGI Conc. per Cell Lines” value (HCT-116) was 60.40 µM and the CC50 (HCT-116; [2]) was greater than 100 µM. It also gave a GI50 (HCT-116; [3]) of 18.7 µM, a CC50 (SK-OV-3; [2]) of 64.4 µM and a GI50 (SK-OV-3; [3]) of 17 µM. For the same compound, the “TGI Conc. per Cell Lines” value (SK-OV-3) was 33.10 µM, the CC50 (SN12C; [2]) was greater than 100 µM and the GI50 (SN12C; [3]) was 19.4 µM. For the same compound, the “TGI Conc. per Cell Lines” value (SN12C) was 48.90 µM, the CC50 (A549/ATCC; [2]) was greater than 100 µM and the GI50 (A549/ATCC; [3]) was 13.9 µM. The “TGI Conc. per Cell Lines” value (A549/ATCC) was 48.50 µM, the LC50 (NCI/ADR-RES; Homo sapiens, 48 h) was 76.8 µM and the GI50 (NCI/ADR-RES; [3]) was 11.9 µM. The “TGI Conc. per Cell Lines” value (NCI/ADR-RES) was 30.20 µM, the GI50 (Melanoma subpanel; Homo sapiens, average sensitivity of all cell lines of the Melanoma subpanel, read-out: GI50 Subpanel MID b) was 21.8 µM and the “GI50 Selectivity Ratio (MID a/MID b)” value (Melanoma subpanel; Melanoma subpanel) was 0.88. The CC50 (RPMI-8226; [2]) was greater than 100 µM, the GI50 (RPMI-8226; [3]) was 29.8 µM and the “TGI Conc. per Cell Lines” value (RPMI-8226) was “˃100 µM”. The “TGI Conc. per Cell Lines” value (786-0) was 31.20 µM, the LC50 (50% lethal concentration) (786-0; Homo sapiens, 48 h) was 66.4 µM and the GI50 (786-0; [3]) was 14.7 µM. The CC50 (NCI-H23; [2]) was 54.9 µM, the GI50 (NCI-H23; [3]) was 13.7 µM and the “TGI Conc. per Cell Lines” value (NCI-H23) was 27.50 µM. For the same compound, the CC50 (SK-MEL-28; [2]) was greater than 100 µM, the GI50 (SK-MEL-28; [3]) was 19.6 µM and the “TGI Conc. per Cell Lines” value (SK-MEL-28) was 52.10 µM. The CC50 (U251; Homo sapiens, U-251, 48 h, read-out: LC50 (the source's name)) was greater than 100 µM, the GI50 (U251; Homo sapiens, U-251, read-out: GI50 Conc. per Cell Lines) was 23.6 µM and the “TGI Conc. per Cell Lines” value (U251) was 65.60 µM. For the same compound, the CC50 (SR; [2]) was greater than 100 µM, the GI50 (SR; [3]) was 42 µM and the “TGI Conc. per Cell Lines” value (SR) was “˃100 µM”. The CC50 (NCI-H322M; [2]) was greater than 100 µM, the GI50 (NCI-H322M; [3]) was 16.3 µM and the “TGI Conc. per Cell Lines” value (NCI-H322M) was 55.50 µM. The CC50 (MDA-MB-435; [2]) was greater than 100 µM, the GI50 (MDA-MB-435; [3]) was 22.8 µM and the “TGI Conc. per Cell Lines” value (MDA-MB-435) was 65.40 µM. For the same compound, the GI50 (MALME-3M; [3]) was 16.2 µM, the “TGI Conc. per Cell Lines” value (MALME-3M) was 36.20 µM and the LC50 (concentration killing 50% of cells) (RXF393; Homo sapiens, RXF 393, 48 h) was 61.5 µM. The GI50 (RXF393; Homo sapiens, RXF 393, read-out: GI50 Conc. per Cell Lines) was 13.6 µM, the “TGI Conc. per Cell Lines” value (RXF393) was 28.90 µM and the CC50 (M14; [2]) was greater than 100 µM. The GI50 (M14; [3]) was 32.1 µM, the “TGI Conc. per Cell Lines” value (M14) was greater than 100 µM and the CC50 (NCI-H522; [2]) was greater than 100 µM. The GI50 (NCI-H522; [3]) was 16.3 µM, the “TGI Conc. per Cell Lines” value (NCI-H522) was 43.70 µM and the “TGI Conc. per Cell Lines” value (HCT-15) was greater than 100 µM. For the same compound, the CC50 (HCT-15; [2]) was greater than 100 µM and the GI50 (HCT-15; [3]) was 22.6 µM.
